For 9 molecules, IC50 results are on record in ChEMBL document CHEMBL1131308, “Synthesis and biological activity of 4-amino-7-oxo-substituted analogues of 5-deaza-5,6,7,8-tetrahydrofolic acid and 5,10-dideaza-5, 6,7,8-tetrahydrofolic acid” (J Med Chem, 1998).

In brackets after ≈: the same amount, converted by molar mass. Where only a bound is given, the exact number is not on record here.

The subject of the test is CCRF-CEM. The test is described as follows: In vitro inhibitory activity against CCRF-CEM human leukemia cells using cytotoxicity assay. The format is functional, cell-based.

Consider `COC(=O)c1ccc(NCC2Cc3c(N)nc(N)nc3NC2=O)cc1` (centres undefined), for which the IC50 (as a rule, the midpoint of a concentration-inhibition curve) was more than 20 µg/mL. `COC(=O)c1ccc(CCC2Cc3c(N)nc(N)nc3NC2=O)cc1` (centres undefined) displayed an IC50 of more than 20 µg/mL. `Nc1nc(N)c2c(n1)NC(=O)C(CNc1ccc(C(=O)O)cc1)C2` (centres undefined) came in with an IC50 of more than 20 µg/mL. On to `Nc1nc(N)c2c(n1)NC(=O)C(CNc1ccc(C(=O)NC(CCC(=O)O)C(=O)O)cc1)C2` (centres undefined), for which the IC50 was more than 20 µg/mL. For `CN(CC1Cc2c(N)nc(N)nc2NC1=O)c1ccc(C(=O)NC(CCC(=O)O)C(=O)O)cc1` (centres undefined) the value was more than 20 µg/mL.

As to `Nc1nc(N)c2c(n1)NC(=O)C(CCc1ccc(C(=O)O)cc1)C2` (centres undefined), 6.7 µg/mL (≈ 20.5 µM) corresponded to half-maximal inhibition (IC50). `CN(CC1Cc2c(N)nc(N)nc2NC1=O)c1ccc(C(=O)O)cc1` (centres undefined) gave an IC50 of more than 20 µg/mL. Regarding `Nc1nc(N)c2c(n1)NC(=O)C(CCc1ccc(C(=O)NC(CCC(=O)O)C(=O)O)cc1)C2` (centres undefined), the IC50 is 39.2 µg/mL (≈ 85.9 µM).

As for `COC(=O)c1ccc(N(C)CC2Cc3c(N)nc(N)nc3NC2=O)cc1` (centres undefined), the IC50 was more than 20 µg/mL.
